Source: ChEMBL document CHEMBL1152976, “Dracotanosides A-D, spermidine glycosides from Dracocephalum tanguticum: structure and amide rotational barrier” (J Nat Prod, 2009)

Experiments:
[1] = Cytotoxicity against human drug-resistant K562/A02 cells after 48 hrs by MTT assay; type: functional, cell-based; settings: K562/A02, 48 h
[2] = test system: K562; assay: Cytotoxicity against human drug-sensitive K562 cells after 48 hrs by MTT assay; type: functional, cell-based; settings: K562, 48 h

Compound	IC50 [1]	IC50 [2]
O=C1CCN[C@@H](c2ccc(O)cc2)CCCN(C(=O)/C=C\c2ccccc2)CCCN1	> 200 µM	> 200 µM
C[C@H]1O[C@@H](Oc2ccc([C@H]3CCCN(C(=O)/C=C/c4ccccc4)CCCNC(=O)CCN3)cc2)[C@@H](O)[C@@H](O)[C@@H]1O [DRACOTANOSIDE D]	> 200 µM	> 200 µM
C[C@H]1O[C@@H](Oc2ccc([C@H]3CCCN(C(=O)/C=C\c4ccccc4)CCCNC(=O)CCN3)cc2)[C@@H](O)[C@@H](O)[C@@H]1O [DRACOTANOSIDE C]	> 200 µM	> 200 µM
C[C@@H]1O[C@@H](Oc2ccc([C@H]3CCCN(C(=O)/C=C/c4ccccc4)CCCNC(=O)CCN3)cc2)[C@H](O[C@@H]2O[C@H](COC(=O)c3ccccc3)[C@@H](O)[C@H](O)[C@H]2O)[C@H](O)[C@H]1O [DRACOTANOSIDE B]	> 200 µM	> 200 µM
C[C@@H]1O[C@@H](Oc2ccc([C@H]3CCCN(C(=O)/C=C\c4ccccc4)CCCNC(=O)CCN3)cc2)[C@H](O[C@@H]2O[C@H](COC(=O)c3ccccc3)[C@@H](O)[C@H](O)[C@H]2O)[C@H](O)[C@H]1O [DRACOTANOSIDE A]	> 200 µM	> 200 µM
